# Experimental data as given in PMC6874530, “Structural analysis identifies an escape route from the adverse lipogenic effects of liver X receptor ligands” (Communications Biology, 2019).
# Assays:
# LXRβ/NCOR1 = target: T1, LXRβ/NCOR1 (Homo sapiens, UniProt P55055); experiment: SPR cofactor recruitment, LXRβ LBD binding to immobilized NCOR1 corepressor peptide
# T1 construct: human his-tagged LXRβ LBD (216-461); His tag; made in house; host or cells: Escherichia coli BL21(DE3)
# T1 sequence (P55055 215-460 limits assumed): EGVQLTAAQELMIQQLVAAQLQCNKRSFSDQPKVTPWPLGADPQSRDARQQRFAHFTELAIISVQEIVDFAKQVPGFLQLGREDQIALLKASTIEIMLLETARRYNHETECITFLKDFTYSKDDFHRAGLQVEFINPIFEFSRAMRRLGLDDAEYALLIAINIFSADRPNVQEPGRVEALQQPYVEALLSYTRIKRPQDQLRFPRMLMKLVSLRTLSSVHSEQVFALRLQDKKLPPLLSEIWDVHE
# Description: (§1) The peptides carried an N-terminal biotin for surface immobilization on a Xantec NID200M Sensor Chip (NTA-derivatized carboxymethyldextran hydrogel, XanTec bioanalytics GmbH) preloaded with Ni^2+. […] LXRα and LXRβ LBD proteins were serially diluted in SPR running buffer (10 mM HEPES, 150 mM NaCl, and 0.05% Tween 20, pH 7.4) to a broad range of concentrations (0.02–10 µM) and equilibrated with tested compound (50 μM) prior to the sample injection over a modified biosensor surface. LXR-ligand complexes were injected in quick succession for 120 s over immobilized cofactor peptides and reference surfaces along with blank samples followed by 900 s of dissociation. The binding level at equilibrium was monitored for all samples, including the reference sample that contained DMSO at equal amount as tested compounds. All data were normalized to this reference sample in order to quantify the effects on peptide binding without bias by receptor instability. The surface was regenerated with 0.5% (w/v) SDS after each injection. Binding responses in the steady-state region of the sensorgrams were plotted against LXR LBD concentration to determine the overall equilibrium-binding affinity by fitting the data to nonlinear regression (Prism 8; GraphPad).
# LXRβ/SRC1 = target: T2, LXRβ/SRC1 (Homo sapiens, UniProt P55055); experiment: SPR cofactor recruitment, LXRβ LBD binding to immobilized SRC1 coactivator peptide; details: LXRβ LBD 0.02–10 µM equilibrated with compound (50 μM), immobilized SRC1 peptide; read-out: LXRβ/SRC1 Kd
# T2 construct: human his-tagged LXRβ LBD (216-461); His tag; made in house; host or cells: Escherichia coli BL21(DE3)
# T2 sequence (P55055 215-460 limits assumed): T1 sequence (P55055 215-460 limits assumed)
# T2 sequence (Q15788 with tags, fused parts or gaps partner limits assumed): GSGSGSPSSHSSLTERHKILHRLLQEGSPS
# Description: as §1
# LXRα/NCOR1 = target: T3, LXRα/NCOR1 (Homo sapiens, UniProt Q13133); experiment: SPR cofactor recruitment, LXRα LBD binding to immobilized NCOR1 corepressor peptide
# T3 construct: Human his-tagged LXRα LBD (200-447); His tag; made in house; host or cells: Escherichia coli BL21(DE3)
# T3 sequence (Q13133 200-447): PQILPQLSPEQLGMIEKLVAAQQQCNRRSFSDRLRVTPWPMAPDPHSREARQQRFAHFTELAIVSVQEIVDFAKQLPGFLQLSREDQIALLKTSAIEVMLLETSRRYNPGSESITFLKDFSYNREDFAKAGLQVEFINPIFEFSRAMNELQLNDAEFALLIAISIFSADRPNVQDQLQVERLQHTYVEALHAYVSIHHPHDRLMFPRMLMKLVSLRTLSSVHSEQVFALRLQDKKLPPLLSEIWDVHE
# T3 sequence (O75376 with tags, fused parts or gaps partner limits assumed): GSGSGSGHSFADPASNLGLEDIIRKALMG
# Description: as §1
# ABCA1 mRNA = experiment: human whole blood assay, ABCA1 mRNA; format: cell-based; details: preliminary results, reply to reviewers
# LXRα/SRC1 = target: T4, LXRα/SRC1 (Homo sapiens, UniProt Q13133); experiment: SPR cofactor recruitment, LXRα LBD binding to immobilized SRC1 coactivator peptide; details: LXRα LBD 0.02–10 µM equilibrated with compound (50 μM)
# T4 construct: Human his-tagged LXRα LBD (200-447); His tag; made in house; host or cells: Escherichia coli BL21(DE3)
# T4 sequence (Q13133 200-447): T3 sequence (Q13133 200-447)
# T4 sequence (Q15788 with tags, fused parts or gaps partner limits assumed): T2 sequence (Q15788 with tags, fused parts or gaps partner limits assumed)
# Description: as §1
# [1] = quantification of drug concentration in plasma of mice; format: in vivo, mouse; details: oral gavage
# Description: Solid compounds were solubilized in PEG400/Ethanol/Solutol/Water solution (36.3/9.1/4.6/50%). Compounds were given daily by oral gavage, 5 ml kg^−1, at doses ranging from 0.1 to 100 μmol kg^−1 of body weight for 4 days. Animals were terminated 3 h after the last dose.
# At termination, the whole-blood volume was drawn from isoflurane-anesthetized mice via an incision in the carotid artery into EDTA blood tubes (S-Monovette®, EDTA KE/1.3 mL, Sarstedt, Nümbrecht, Germany or BD Microtainers®, Benton, Dickinson and Company, Franklin Lakes, New Jersey, USA). Blood samples were placed on ice and centrifuged within an hour (15 min, 2500 × g, 4 °C or 5 min, 16000 × g, 4 °C). The plasma was then dispensed in separate tubes and kept at −80 °C for later analysis of compound concentration and TG levels. For the analysis of intestinal Abca1 transcript levels, a 3–5-mm long segment of the duodenum was excised and cleared from any gut contents. Tissues were instantly snap frozen in liquid nitrogen and stored at −80 °C.
# About 25 µL of plasma was precipitated with 150 µL of cold acetonitrile containing 0.2% formic acid. After vortexing followed by 20 min of centrifugation at 3220 × g and 4 °C, the supernatant was diluted 1:1 with 0.2% formic acid (aqueous phase). […]
# LXRβ LBD = target: T5, LXRβ LBD (Homo sapiens, UniProt P55055); details: LXRβ over LXRα binding
# T5 sequence (P55055 215-460 limits assumed): T1 sequence (P55055 215-460 limits assumed)
# Description: The compounds were run in triplicate (binding assay) or in quadruplicate (transactivation assay). Standard deviations are indicated for individual experiments run more than once.
structure (smiles),measurement,setting,value
CC(C)(O)c1cn(-c2ccc(-c3cc(F)c(CO)c(S(C)(=O)=O)c3)cc2F)c(C(C)(C)c2c(Cl)cccc2Cl)n1 [BMS-852927],effect on the LXRβ/NCOR1 interaction,LXRβ/NCOR1,enhanced the interaction
same,Kd,LXRβ/SRC1,19.8 µM
same,effect on the LXRα/NCOR1 interaction,LXRα/NCOR1,enhanced the interaction
same,ABCA1 mRNA levels in human whole blood assay,ABCA1 mRNA,"induces ABCA1 mRNA levels, however with lower efficiency than full"
CC(C)N1C(=O)C(NC2CCN(c3ncc(CC(=O)O)cc3Cl)CC2)=C(c2ccccc2)S1(=O)=O [AZ6],Kd,LXRα/SRC1,1.5 µM
CN(C)C(=O)c1cnc(N2CC[C@@H](CNC3=C(c4ccccc4)S(=O)(=O)N(C(C)(C)C)C3=O)C2)c(Cl)c1 [AZ5],systemic exposure,[1],too low
CC(C)(C)N1C(=O)C(Cc2ccccc2)=C(NC2CCN(c3ncc(CC(=O)O)cc3Cl)CC2)C1=O [AZ7],LXRβ binding selectivity,LXRβ LBD,more than tenfold
